Experimental data taken from US20180000719A1, “A SKIN LIGHTENING COMPOSITION COMPRISING NIACINAMIDE AND ILOMASTAT” (Conopco, Inc., d/b/a UNILEVER, priority 2014, published 2018).

Assays:
[1] = test system: primary human melanocytes; assay: cells
Experimental: (i) Cell Cultures: • Neonatal foreskin primary human melanocytes were procured from Life Technologies, USA. Cells were grown in Medium 254 supplemented with human melanocyte growth supplement-2 and maintained at 37° C. in a humidified incubator with 5% CO2 atmosphere. The maintenance and sub culturing of cells were carried out as per the manufacturer's instructions. Cells between passages 3-6 were used for experimentation.
(ii) Active Addition: • Cells were seeded at a density of 5×10^4/well in a 24 well plate in Melanocyte Growth Media (MGM) and incubated for 24 hrs at 37° C./5% CO2. Actives were added to cells along with relevant controls.
(iii) Cell Viability Assay • Briefly, spent media was removed and cells washed once with 0.2 ml of 1×PBS-Ca—Mg solution. Fresh 1 μM calcein-AM in PBS buffer was added to each well. Plates were incubated for 30 min. at 37° C. in a CO2 incubator. Calcein fluorescence was then measured (excitation at 490 nm and emission at 520 nm) in TECAN M1000 plate reader.
(iv) Melanin Content Assay: • After Calcein measurements, cultures were rinsed with PBS (1×) and lysed for 1 hour at 60° C. in a shaker incubator using NaOH/DMSO mix. Melanin content was measured in a Tecan plate reader (405 nm filter), corrected for cell numbers and represented as % inhibition.

[2] = biological target: T1, Tyrosinase enzyme (Homo sapiens, UniProt P14679); assay: In vitro human tyrosinase activity assay (melanocytic lysate); type: biochemical
T1 construct: Primary human melanocytic lysate was used as a source of Tyrosinase enzyme; endogenous in cells; host or cells: primary human melanocytes (lysate)
T1 sequence (P14679 19-529): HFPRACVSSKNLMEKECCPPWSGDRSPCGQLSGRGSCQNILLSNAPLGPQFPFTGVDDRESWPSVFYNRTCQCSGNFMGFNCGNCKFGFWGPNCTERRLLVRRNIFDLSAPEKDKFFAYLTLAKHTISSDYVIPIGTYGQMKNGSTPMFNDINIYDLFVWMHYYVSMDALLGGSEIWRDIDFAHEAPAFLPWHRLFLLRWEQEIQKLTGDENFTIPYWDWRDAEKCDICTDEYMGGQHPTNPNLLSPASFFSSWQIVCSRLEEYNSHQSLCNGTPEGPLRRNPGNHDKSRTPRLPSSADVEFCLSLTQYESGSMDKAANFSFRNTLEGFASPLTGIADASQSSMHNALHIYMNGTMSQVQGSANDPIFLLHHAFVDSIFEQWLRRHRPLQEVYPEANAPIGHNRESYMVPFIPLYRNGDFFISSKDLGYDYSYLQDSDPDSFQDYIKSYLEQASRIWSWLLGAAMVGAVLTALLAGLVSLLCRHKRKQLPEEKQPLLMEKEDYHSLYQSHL
Experimental: (v) In Vitro Human Tyrosinase Activity Assay: • Primary human melanocytic lysate was used as a source of Tyrosinase enzyme. Human melanocytic lysate and test actives (at different concentrations) were incubated together for 15 mins, prior to addition of Tyrosine/DOPA substrate mix. Assay plate was then incubated at 37° C. for ˜14-16 hrs. Optical Density was measured at 405 nm and % Inhibition calculated.

[3] = Homo sapiens, Melanocyte, 72 h, read-out: Average % inhibition in cellular melanin

SMILES	inhibition at 1000 µM [1, 3]	inhibition at 10000 µM [1, 3]	inhibition at 10 µM ([2]; 0.01 mM Niacinamide)	inhibition at 100 µM ([2]; 0.1 mM Niacinamide)	inhibition at 1000 µM ([2]; 1 mM Niacinamide)	inhibition at 10000 µM ([2]; 10 mM Niacinamide)	inhibition at 50000 µM ([2]; 50 mM Niacinamide)	inhibition at 1 µM [1, 3]	inhibition at 10 µM [1, 3]	reduction of melanin content in primary human melanocytes (in words) ([1]; galardin by itself at 1 μM)	reduction of melanin content in primary human melanocytes (in words) ([1]; galardin by itself at 10 μM)
NC(=O)c1cccnc1 [Niacinamide, pyridine-3-carboxamide]	-7%	16%	2%	2%	4%	-8%	-20%	–	–	–	–
CNC(=O)[C@H](Cc1c[nH]c2ccccc12)NC(=O)[C@@H](CC(=O)NO)CC(C)C [Galardin, (R)—N4-Hydroxy-N1-[(S)-2-(1H-indol-3-yl)-1-methylcarbamoyl-ethyl]-2-isobutyl-succinamide]	–	–	–	–	–	–	–	6%	17%	no reduction	modest reduction
